Laboratory results published in paper PMC12196347, “Evaluating Triazole-Substituted Pyrrolopyrimidines as CSF1R Inhibitors” (Molecules, 2025).
In brackets after ≈: the same amount, converted by molar mass.

Key:
[1] = Mouse plasma protein binding; assay type: in vitro ADME; conditions: fraction bound, read-out: PPB (converted)
[2] = tested on: KIT-positive cell line GIST-T1; assay: GIST-T1 CellTiter-Glo cell viability assay; assay type: cell-based; conditions: Homo sapiens, GISTT1; cellular proliferation, GIST-T1, 72 h
CSF1R Ba/F3 cells = assay: Cell viability assay, Ba/F3 cells engineered to be dependent on CSF1R; assay type: cell-based; conditions: duplicate measurements
CSF1R [3] = molecular target: CSF1R (Homo sapiens, UniProt P07333); assay: CSF1R enzymatic IC50, Z-LYTE assay platform; assay type: biochemical; conditions: for Hill coefficient: Z-LYTE CSF1R IC50 curve; for IC50: Z-LYTE, 10-point titrations in duplicates, ATP equal to KM ca. 10 µM, read-out: CSF1R enz. IC50
Target sequence in this assay (P07333 20-972): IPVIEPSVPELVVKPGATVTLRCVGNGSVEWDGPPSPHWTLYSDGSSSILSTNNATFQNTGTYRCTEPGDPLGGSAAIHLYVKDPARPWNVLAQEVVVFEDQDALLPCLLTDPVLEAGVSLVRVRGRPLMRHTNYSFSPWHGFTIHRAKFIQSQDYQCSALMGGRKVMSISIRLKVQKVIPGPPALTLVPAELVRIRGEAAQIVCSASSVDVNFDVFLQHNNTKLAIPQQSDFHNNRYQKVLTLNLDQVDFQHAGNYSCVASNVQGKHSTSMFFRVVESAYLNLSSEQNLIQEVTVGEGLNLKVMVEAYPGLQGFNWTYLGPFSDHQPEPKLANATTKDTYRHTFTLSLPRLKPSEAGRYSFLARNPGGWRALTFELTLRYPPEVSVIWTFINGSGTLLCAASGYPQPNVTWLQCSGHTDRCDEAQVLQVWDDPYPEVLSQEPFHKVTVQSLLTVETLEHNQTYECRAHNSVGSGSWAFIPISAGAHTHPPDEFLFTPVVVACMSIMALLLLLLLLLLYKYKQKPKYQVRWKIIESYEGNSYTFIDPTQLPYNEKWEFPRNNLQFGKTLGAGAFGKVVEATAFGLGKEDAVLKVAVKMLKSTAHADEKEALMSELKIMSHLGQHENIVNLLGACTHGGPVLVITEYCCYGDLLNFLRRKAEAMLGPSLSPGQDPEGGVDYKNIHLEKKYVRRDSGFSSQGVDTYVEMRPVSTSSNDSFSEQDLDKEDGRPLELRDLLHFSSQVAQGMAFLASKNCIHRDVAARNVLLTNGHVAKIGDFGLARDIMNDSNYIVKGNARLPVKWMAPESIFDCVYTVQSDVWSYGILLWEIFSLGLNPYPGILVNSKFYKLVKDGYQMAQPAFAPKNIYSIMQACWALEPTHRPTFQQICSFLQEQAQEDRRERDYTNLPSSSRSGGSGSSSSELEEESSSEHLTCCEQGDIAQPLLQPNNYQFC

[4] = tested on: IL-3 dependent Ba/F3 cell line (CSF1R independent); assay: Control assay for cellular toxicity, Ba/F3 cells dependent on IL-3; assay type: cell-based; conditions: Mus musculus, BaF3; Ba/F3 cells dependent on IL-3, control for cellular toxicity
[5] = Human liver microsome intrinsic clearance, Phase I; assay type: in vitro ADME; conditions: in vitro intrinsic clearance
cKIT kinase = molecular target: T1, cKIT kinase (Homo sapiens, UniProt P10721); assay: KIT inhibition (KD), TR-FRET tracer displacement; assay type: binding; conditions: kinase tracer 236, anti-GST antibody Eu-conjugate, read-out: KIT enz. KD
T1 construct: purchased Carna Biosciences
T1 sequence (P10721 26-976): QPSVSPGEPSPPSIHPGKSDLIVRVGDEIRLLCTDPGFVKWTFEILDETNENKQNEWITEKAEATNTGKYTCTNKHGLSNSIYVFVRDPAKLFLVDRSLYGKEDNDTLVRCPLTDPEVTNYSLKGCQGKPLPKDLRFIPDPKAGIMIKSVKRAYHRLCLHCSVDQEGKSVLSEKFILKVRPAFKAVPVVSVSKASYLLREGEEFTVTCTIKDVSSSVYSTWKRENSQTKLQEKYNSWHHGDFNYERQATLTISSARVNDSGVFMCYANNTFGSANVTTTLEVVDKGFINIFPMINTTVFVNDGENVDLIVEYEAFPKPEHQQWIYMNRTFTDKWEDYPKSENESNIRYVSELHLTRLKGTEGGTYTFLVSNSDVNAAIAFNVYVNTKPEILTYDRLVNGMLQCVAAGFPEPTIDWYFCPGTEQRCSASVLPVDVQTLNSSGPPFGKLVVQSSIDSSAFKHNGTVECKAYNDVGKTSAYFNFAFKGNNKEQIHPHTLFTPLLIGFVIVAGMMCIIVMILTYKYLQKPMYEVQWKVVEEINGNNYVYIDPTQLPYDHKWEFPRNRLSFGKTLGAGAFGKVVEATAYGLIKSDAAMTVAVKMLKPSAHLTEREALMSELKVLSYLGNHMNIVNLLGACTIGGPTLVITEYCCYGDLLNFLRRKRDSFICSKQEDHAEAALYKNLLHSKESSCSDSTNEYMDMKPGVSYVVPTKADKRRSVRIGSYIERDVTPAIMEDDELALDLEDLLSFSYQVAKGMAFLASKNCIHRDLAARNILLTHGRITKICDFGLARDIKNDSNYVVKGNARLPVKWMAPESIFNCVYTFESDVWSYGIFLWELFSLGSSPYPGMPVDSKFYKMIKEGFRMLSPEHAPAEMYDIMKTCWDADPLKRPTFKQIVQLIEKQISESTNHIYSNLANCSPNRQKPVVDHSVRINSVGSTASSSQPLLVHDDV

[6] = Kinetic solubility, spectrophotometric; assay type: physicochemical; conditions: aqueous buffer, kinetic from dmso stock, spectrophotometrically at pH 7.4 in HEPES buffer
MDCK permeability assay = assay type: in vitro ADME, canine; conditions: dog, MDCK cell monolayer; for Papp A→B: A-B direction; for Papp B→A: B-A direction; for efflux ratio: read-out: Ratio Papp B > A/Papp A > B
CSF1R [7] = molecular target: T2, CSF1R (Homo sapiens, UniProt P07333); assay: CSF1R enzymatic inhibition, TR-FRET-based LANCE Ultra assay; assay type: biochemical; conditions: single 8-point titrations, ATP concentration 25 µM, read-out: Enz. IC50
T2 sequence (P07333 539-972 limits assumed): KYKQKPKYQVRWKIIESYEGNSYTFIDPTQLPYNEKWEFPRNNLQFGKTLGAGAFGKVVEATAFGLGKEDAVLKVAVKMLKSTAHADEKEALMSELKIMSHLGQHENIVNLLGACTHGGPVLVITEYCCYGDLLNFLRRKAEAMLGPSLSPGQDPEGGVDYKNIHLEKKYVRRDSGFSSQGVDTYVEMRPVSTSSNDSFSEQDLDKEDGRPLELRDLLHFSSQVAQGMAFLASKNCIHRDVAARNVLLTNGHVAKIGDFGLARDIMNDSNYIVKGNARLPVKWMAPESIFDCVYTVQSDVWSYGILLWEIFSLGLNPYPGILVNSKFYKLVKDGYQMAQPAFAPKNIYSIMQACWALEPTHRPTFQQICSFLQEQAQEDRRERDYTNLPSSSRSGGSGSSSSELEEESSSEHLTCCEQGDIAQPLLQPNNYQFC

[8] = Mouse liver microsome intrinsic clearance, Phase I; assay type: in vitro ADME; conditions: in vitro intrinsic clearance
[9] = Caco-2 permeability assay; assay type: in vitro ADME; conditions: human; Caco-2 cell assay
[10] = Mus musculus, BaF3, Ba/F3 cells dependent on CSF1R

`CN(CC1CCOCC1)c1ncnc2[nH]c(-c3ccc(N)cc3)cc12` [Structure IV, reference compound] gave a fraction unbound [1] of 0.236.

With `FC(F)(F)c1ccc(CNc2ccc(Cc3c[nH]c4ncc(Cl)cc34)cn2)cn1` [PLX-3397, pexidartinib, reference compound] the fraction unbound [1] was < 0.01, the IC50 [2] was 0.03 µM and the IC50 (CSF1R Ba/F3 cells; [10]) was 0.06 ± 0.1 µM. The Hill coefficient (CSF1R [3]) was 1.18 and the IC50 [4] was > 10 µM.

In the case of `COc1ccc(-n2cc(-c3cc4c(N(C)CC5CCOCC5)ncnc4[nH]3)nn2)cc1` [Compound 21b, 6-(1-(4-Methoxyphenyl)-1H-1,2,3-triazol-4-yl)-N-methyl-N-((tetrahydro-2H-pyran-4-yl)methyl)-7H-pyrrolo[2,3-d]pyrimidin-4-amine], the fraction unbound [1] is reported as 0.24, the HLM [5] is reported as 74.5 µL/min/mg and the Kd (cKIT kinase) is reported as > 1 µM. The solubility kinetic [6] was 7.3 µM (≈ 3.06 µg/mL), the IC50 [2] was > 30 µM and the IC50 (CSF1R Ba/F3 cells; [10]) was 0.6 ± 0.2 µM. The Hill coefficient (CSF1R [3]) was 0.913, the IC50 (CSF1R [3]) was 0.0012 ± 0.0003 µM and the Papp A→B (MDCK permeability assay) was 107 nm/s. The Papp B→A (MDCK permeability assay) was 136 nm/s, the efflux ratio (MDCK permeability assay) was 1.3 and the IC50 (CSF1R [7]) was 0.003 µM. The IC50 [4] was > 10 µM and the MLM [8] was 288 µL/min/mg.

With `Cc1cccc(CN(C)c2ncnc3[nH]c(-c4ccc(CO)cc4)cc23)c1` [Structure III] the Papp A→B [9] was 6.9 nm/s and the Papp B→A [9] was 1.9 nm/s.

For `Cc1ccc(Cn2cc(-c3cc4c(N(C)CC5CCOCC5)ncnc4[nH]3)nn2)cc1` [Compound 25b, N-Methyl-6-(1-(4-methylbenzyl)-1H-1,2,3-triazol-4-yl)-N-((tetrahydro-2H-pyran-4-yl)methyl)-7H-pyrrolo[2,3-d]pyrimidin-4-amine], the fraction unbound [1] was 0.025, the HLM [5] was 62.4 µL/min/mg and the Kd (cKIT kinase) was > 0.1 µM. The solubility kinetic [6] was 10.6 µM (≈ 4.43 µg/mL), the IC50 [2] was > 3 µM and the IC50 (CSF1R Ba/F3 cells; Ba/F3 cells dependent on CSF1R) was 0.5 µM. It also gave an IC50 (CSF1R Ba/F3 cells; [10]) of 1 µM, a Hill coefficient (CSF1R [3]) of 0.981 and an IC50 (CSF1R [3]) of 0.0013 µM. For the same compound, the Papp A→B (MDCK permeability assay) was 100 nm/s, the Papp B→A (MDCK permeability assay) was 254 nm/s and the efflux ratio (MDCK permeability assay) was 2.6. For the same compound, the IC50 (CSF1R [7]) was < 0.001 µM, the IC50 [4] was > 10 µM and the MLM [8] was 1980 µL/min/mg.

For `CN(CC1CCOCC1)c1ncnc2[nH]c(-c3cn(C4CCOCC4)nn3)cc12` [Compound 29b, N-Methyl-6-(1-(tetrahydro-2H-pyran-4-yl)-1H-1,2,3-triazol-4-yl)-N-((tetrahydro-2H-pyran-4-yl)methyl)-7H-pyrrolo[2,3-d]pyrimidin-4-amine], the solubility kinetic [6] was 76 µM (≈ 30.2 µg/mL), the “CSF1R Ba/F3 IC50” value (CSF1R Ba/F3 cells; Ba/F3 cells dependent on CSF1R) was “No measurable cell activity” and the IC50 (CSF1R Ba/F3 cells; [10]) was > 10 µM. For the same compound, the IC50 (CSF1R [7]) was < 0.001 µM and the IC50 [4] was > 10 µM.

With `COc1ccc(Cn2cc(-c3cc4c(N(C)Cc5cccc(C)c5)ncnc4[nH]3)nn2)cc1` [Compound 26a, 6-(1-(4-Methoxybenzyl)-1H-1,2,3-triazol-4-yl)-N-methyl-N-(3-methylbenzyl)-7H-pyrrolo[2,3-d]pyrimidin-4-amine] the solubility kinetic [6] was 4.6 µM (≈ 2.02 µg/mL), the IC50 (CSF1R Ba/F3 cells; [10]) was 2.8 ± 0.3 µM and the IC50 (CSF1R [7]) was 0.0058 µM. The IC50 [4] was > 10 µM.

With `CN(CC1CCOCC1)c1ncnc2[nH]c(-c3cn(Cc4cccnc4)nn3)cc12` [Compound 27b, N-Methyl-6-(1-(pyridin-3-ylmethyl)-1H-1,2,3-triazol-4-yl)-N-((tetrahydro-2H-pyran-4-yl)methyl)-7H-pyrrolo[2,3-d]pyrimidin-4-amine] the fraction unbound [1] was < 0.01, the solubility kinetic [6] was 43 µM (≈ 17.4 µg/mL) and the IC50 (CSF1R Ba/F3 cells; [10]) was 1.7 ± 0.1 µM. For the same compound, the IC50 (CSF1R [7]) was 0.0018 µM and the IC50 [4] was > 10 µM.

With `COc1ccc(Cn2cc(-c3cc4c(N(C)CC5CCOCC5)ncnc4[nH]3)nn2)cc1` [Compound 26b, 6-(1-(4-Methoxybenzyl)-1H-1,2,3-triazol-4-yl)-N-methyl-N-((tetrahydro-2H-pyran-4-yl)methyl)-7H-pyrrolo[2,3-d]pyrimidin-4-amine] the solubility kinetic [6] was 7.2 µM (≈ 3.12 µg/mL), the IC50 (CSF1R Ba/F3 cells; [10]) was 1.5 ± 0.5 µM and the IC50 (CSF1R [7]) was < 0.001 µM. For the same compound, the IC50 [4] was > 10 µM.

For `COc1ccc(-n2cc(-c3cc4c(N(C)Cc5cccc(C)c5)ncnc4[nH]3)nn2)cc1` [Compound 21a, 6-(1-(4-Methoxyphenyl)-1H-1,2,3-triazol-4-yl)-N-methyl-N-(3-methylbenzyl)-7H-pyrrolo[2,3-d]pyrimidin-4-amine], the solubility kinetic [6] was 1.3 µM (≈ 0.553 µg/mL), the IC50 (CSF1R Ba/F3 cells; [10]) was 6 µM and the IC50 (CSF1R [7]) was 0.0059 µM. For the same compound, the IC50 [4] was > 10 µM.

For `Cc1cccc(CN(C)c2ncnc3[nH]c(-c4cn(Cc5ccc(F)cc5)nn4)cc23)c1` [Compound 24a, 6-(1-(4-Fluorobenzyl)-1H-1,2,3-triazol-4-yl)-N-methyl-N-(3-methylbenzyl)-7H-pyrrolo[2,3-d]pyrimidin-4-amine], the solubility kinetic [6] was 0.2 µM (≈ 0.0855 µg/mL), the IC50 (CSF1R Ba/F3 cells; [10]) was > 10 µM and the IC50 (CSF1R [7]) was 0.002 µM. The IC50 [4] was > 10 µM.
